Experimental data as given in US9107879B1, “Methods of increasing the cytotoxicity of chemotherapeutic agents with multisubstrate inhibitors of histone, protein-lys, polyamine acetylation, and polyamine metabolism” (Vanderbilt University, priority 2010, dated 2015).

Key:
[1] = system: endogenous HATs associated with solubilized chromatin; conditions: literature (Bandyopadhyay et al 2009; Parello et al. 1990); cited from earlier work
H358 lung cancer cells = experiment: [3H]-thymidine incorporation DNA synthesis assay; assay type: cell-based; conditions: data not shown
Experimental: (A) Structures of 1a, and the acetylated side chain of a lysine residue within the polypeptide chain of a protein targeted by the acetylating enzyme (R1 and R2 are the main chain elements on both sides of the lysyl residue). (B) [^3H]-thymidine incorporation into DNA of H358 cells pulsed for 6 hrs at three different time points after the addition of increasing concentrations of 1a, i.e., at 6-12 hrs (12 hr curve), at 18-24 hours (24 hr curve), or at 42-48 hrs (48 hr curve). Incorporation is represented as a percentage relative to control (untreated) cells. (C) Cell cycle analysis of propidium iodide-stained cells harvested at various times after addition of 50 μM 1a. % of cells in G1, S, and G2 represents the average of two independent profiles. (D) Western analysis of histone H3 lysine 9 acetylation, histone H3 lysine 56 acetylation, histone H3 lysine 9 methylation, and total histone H3, before “c” or at the indicated times after addition of 50 μM 1a. Each lane represents 60 μg cellular protein.
Control cells were left untreated. […] Control cells were left untreated.
Cells were either labeled immediately before treatment (starting DNA synthesis rate), or subjected to the indicated treatments and then pulsed on successive days until day 4. DNA synthesis is represented as the percent of starting DNA synthesis rate. Viability was determined for each treatment condition 24 hours post-start of treatment by the trypan blue exclusion assay, with percentages of viable cells indicated to the right of the graph.
H358 cells (2,000/well) in 96-well plates were treated with 1, 10 or 50 μM of spd-1a, spd-2a, spd-3a, spm3, or spm2 for 12 hours. Triplicate wells of cells were pulsed 6 hours with 0.5 μCi [^3H]-thymidine (NEN, Boston Mass.) post-start of drug treatment, and harvested onto filter paper using a Brandel Harvester and subjected to scintillation counting. Untreated cells were pulsed 0-6 hrs to establish the initial rate of incorporation.
Cells were plated in 96-well plates (2000 cells per well to insure conditions for exponential growth for untreated cells over the time course of the experiment) and exposed to the following treatments: 1a (50 μM); camptothecin (Sigma, St Louis, Mo. 5 nM, 18 hours); cisplatin (Platinol, obtained through local pharmacies, 2 μM, 1 hour 15 minutes), 5-fluorouracil (5FU, Adrucil™, obtained through local pharmacies, 2 μM, 1 hour 15 minutes), Taxotere (provided by the late Dr. Pierre Potier, 5 nM, 18 hours). UVC treatment (40 J/m^2) using a Stratalinker™, Stratagene, La Jolla, Calif.) was carried using medium lacking phenol red. At 0-6 hr, 18-24 hr (day 1), 42-48 hr […], 66-72 hr (day 3), and 90-96 hr (day 4) post-start of treatment, triplicate wells were incubated with 0.5 μCi [^3H]-thymidine (NEN, Boston Mass.), harvested onto filter paper, and subjected to scintillation counting. Trypan blue exclusion assays for cell membrane integrity were carried out as known in the art.
The present inventors used [^3H]-thymidine incorporation assays to examine DNA synthesis in H358 lung cancer cells in the presence of varying concentrations of 1a. Cells were pulsed for 6 hours with [^3H]-thymidine at three different time points after the addition of 1a (i.e., at 6-12 hours, at 18-24 hours, and at 42-48 hours). The incorporation of [^3H]-thymidine into DNA decreased with increasing concentrations of 1a at all three time points, with the maximal effect occurring with the 6-12 hour pulse (FIG. 2B).
We then used [^3H]-thymidine incorporation assays to examine DNA synthesis in H358 lung cancer cells in the presence of 1a alone, or together with an 18 hour exposure to the DNA damaging drug, camptothecin (CPT), a plant alkaloid from which an important class of topoisomerase I-targeted chemotherapeutic agents (Hycamtin [topotecan] and Camptosar [irinotecan]) has been derived (Garcia-Carbonero, et al, 2002, Clin Cancer Res 8: 641-61). […]

γ-H2A.X in H358 cells = experiment: double strand break / gamma-H2A.X Western and co-immunoprecipitation; assay type: cell-based; conditions: 18 hours post-start; 1a 50 μM, 5FU 2 μM, cisplatin 2 μM, camptothecin 5 nM
Experimental: Also shown are controls for no treatment (“c” minus 1a) or treatment with 1a only (“c” plus 1a). Each lane represents 60 μg protein. […] Each lane represents 60 μg protein.
To measure DSB repair, cells were incubated for 1 hour with 10 μM camptothecin to induce DSBs, followed by incubation in the presence or absence of 50 μM 1a. At fixed times, histones were prepared by extraction in 0.2M H2SO4 as described previously and 50 μg extract was analyzed by 12% SDS-PAGE followed Western analysis as described previously, using rabbit polyclonal anti-γ-H2A.X [phosphor ser 139] (Novus Biologicals, Littleton, Colo.) or anti-H3 (Upstate Biotechnology, Inc, Lake Placid, N.Y.). Band intensities were quantitated digitally. To study acetylation of γ-H2A.X, we carried out co-immunoprecipitation analysis using 50 μg extract protein in immunoprecipitation buffer (10 mM sodium phosphate pH 7, 0.15 M NaCl, 0.1% SDS, 1% NP40, 1% sodium deoxycholate, aprotinin, 1 mM PMSF, complete protease inhibitors (Roche) using immobilized anti-acetyl-lysine (Millipore, Temecula, Calif.) in the immunoprecipitation step. The immunoprecipitated material was then analyzed as for Western analysis using anti γ-H2A.X.
Double strand breaks (DSBs) can be formed by a variety of DNA damaging agents, including camptothecin, cisplatin, 5FU, and UVC radiation (Avemann K, et al., 1988, Mol Cell Biol, 8: 3026-34; Bogdanov K V, et al. 1997, Br J Haematol, 98:869-72; Pavon M A, et al., Int J Cancer, 2008, 123:1068-79) implying that DSB repair may play a role in reducing their cellular toxicity. To examine how 1a treatment affects DSB repair in H358 cells we made use of the fact that the histone variant, H2A.X becomes phosphorylated at sites of double strand breaks (denoted γ-H2A.X), and can be detected by immunoblot analysis of acid extracted cells (Rogaku E P, et al., 1999, J Cell Biol, 146:905-16). […] Total H3 levels and H2A.X levels (control) are unaffected by these treatments (FIG. 4B). […]

MCF7 breast cancer cells = conditions: single agent; DFMO 100 μM, 5FU 2 μM 18 hrs, doxorubicin 100 nM 18 hr; spd-2a with no siRNA or control siRNA
Experimental: (A) [^3H]-thymidine incorporation into DNA of H358 cells (left panel) or MCF-7 cells (right panel) during a 6 hour pulse ending at the indicated time points after initiation of treatment. Treatments were 50 μM 1a alone, 5 nM camptothecin alone (CPT, 18 hours), 50 μM 1a+5 nm CPT (18 hours). Control cells were left untreated. (B) 2-day 96-well viability assays of H358 cells (left panel) or MCF-7 cells (right panel) grown in presence of increasing concentrations of 1a (continuous), with or without an 18-hour treatment with 5 nM camptothecin (CPT). Cell viability, represented as a percent of untreated cell viability (i.e., no 1a, no CPT), was determined 2 days post-start of treatment by the MTS bioconversion assay (MTS=(3-(4,5′-dimethylthiazol-2-yl)-5-(3-carboxymethoxylphenyl-2-(4-sulfophenyl)-2H-tetrazolium salt). Each data point represents the average of triplicate wells. Assays were carried out under conditions such that untreated cells remained in exponential growth. (C) [^3H]-thymidine incorporation into DNA of H358 cells carried out as in part “A”. Treatment consisted of 1a alone (50 μM), or cisplatin (2 μM, 1 hour, 15 minutes) alone or together with 1a (Panel 1); or UVC (40 J/m^2), alone or together with 1a (Panel 2); or 5-fluorouracil (5FU, 2 μM, 18 hours) alone or together with 1a (Panel 3), or Taxotere™ (5 nM, 18 hours), alone or together with 1a (Panel 4). Control cells were left untreated. Symbols are as follows: (-◯-) untreated control; (-●-) 50 μM 1a, (-∇-) drug or UVC alone; (-▾-) combination 1a+drug or UVC.
Viability was measured 3 days after the start of treatment and is expressed as a percentage of control (untreated) cell viability.
Each point is average of triplicates.
Date of exp: 7-17-2010; located p.21 in Hat notebook: KB-2 (2010-2011).
Cells were plated in 96-well plates (3000 cells per well) and incubated 18 hours with or without 5 nM camptothecin (Sigma, St Louis, Mo.). Triplicate wells were then treated with varying doses of 1a (from 0-50 μM). Control cells received neither 1a nor camptothecin. 2-day viability was determined by the MTS assay as previously (Saadatmandi et al., 2002, Cancer Gene Therapy, 9: 830-9) and expressed as a percentage of control cell viability.
The present inventors carried out 96-well viability assays as we have previously described (Saadatmandi et al, Cancer Gene Therapy (2002) 9:830-9), in which MCF7 breast cancer cells were plated at 3000 cells per well. After overnight attachment, triplicate wells were treated with increasing doses of inhibitor 1a. Control wells were left untreated. After 3 days, cell viability was measured by the MTS assay, which measures the bioconversion of an uncolored substrate to a colored formazan derivative, and is proportional to cell number. […]

[2] = system: MDA MB-435 breast cancer cells; experiment: 72 hr viability assay; assay type: cell-based; conditions: DFMO 100 μM, 5FU 2 μM 18 hrs, doxorubicin 100 nM 18 hr
DLD-1 colon cancer = experiment: subcutaneous DLD-1 tumor model in nude mice; assay type: in vivo, nude mouse; conditions: DFMO alone, intratumoral, 2 mg/kg
Experimental: Tumors were initiated By subcutaneous implantation of […] DLD-1 colon cancer cells. […] Tumors were measured and volumes calculated as in FIG. 14.
Tumors were initiated by injecting 10^6 DLD-1 cells (from ATCC) per mouse (female nude mouse, 4-5 weeks, Harlan Labs) subcutaneously in the flank. (A) When the average tumor size reached 26 mm^3, animals were randomized into 2 groups (3 per group). One group was left untreated and served as the control (-●-). […] Tumors were measured bidirectionally at 2-3 day intervals and tumor volumes were calculated (v=½L×w^2). A paired t-test was used to evaluate the significance of the differences between the two groups of animals. […] (B) Tumors were initiated as in part (A). When tumors reached an average size of about 30 mm^3, animals were randomized into three groups of 2 animals each. The control group (-●-) received no treatment. The DFMO group (-▪-) received intratumoral injections of DFMO (2 mg/kg) on days 1, 7, 9 (5 PM), and 2, 8, 10 (9 AM, 5 PM). […] Tumors were measured and volumes calculated as in part (A). A paired t-test was used to evaluate the significance of the difference between the curves.

| SMILES | inhibitory activity against endogenous HAT [1] | inhibitory activity against DNA synthesis in vivo, isomers compared (H358 lung cancer cells) | γ-H2A.X level, single agent (γ-H2A.X in H358 cells) | 3-day / 72 hr cell viability, single agent (MCF7 breast cancer cells) | 72 hr cell viability, single agent [2] | tumor volume difference versus control (DLD-1 colon cancer) |
| --- | --- | --- | --- | --- | --- | --- |
| CC(C)(COP(=O)(O)OP(=O)(O)OC[C@H]1O[C@@H](n2cnc3c(N)ncnc32)[C@H](O)[C@@H]1OP(=O)(O)O)[C@@H](O)C(=O)NCCC(=O)NCCSCC(=O)NCCCCNCCCN [1b, spermidine [N8]-CoA] | comparable inhibitory activity | comparable inhibitory activity |  |  |  |  |
| O=c1[nH]cc(F)c(=O)[nH]1 [5FU, 5-Fluorouracil] |  |  | weakly detectable | minimal effects | minimal effects |  |
| NCCC[C@](N)(C(=O)O)C(F)F [DFMO, α-difluoromethylornithine] |  |  |  | ineffective | ineffective | not significant |
| N.N.[Cl][Pt][Cl] [cisplatin, cis-diamminedichloro-platinium] |  |  | weakly detectable |  |  |  |
| COc1cccc2c1C(=O)c1c(O)c3c(c(O)c1C2=O)C[C@@](O)(C(=O)CO)C[C@@H]3O[C@H]1C[C@H](N)[C@H](O)[C@H](C)O1 [doxorubicin] |  |  |  | minimal effects | minimal effects |  |
